Assay results reported in patent EP0456514A1, “2-Fluoroneplanocin A and its production” (ASAHI KASEI KOGYO KABUSHIKI KAISHA, priority 1990, dated 1991).
≈ marks a conversion by molar mass, not a printed value.

Legend:
L5178Y cells = assay: Growth inhibition activity against L5178Y cells; assay type: cell-based; settings: for IC50: Mus musculus, L5178Y cells, incubated at 37 °C for 48 hours, cell number by Coulter counter
Description: (1) Growth inhibition activity against L5178Y cells:
A solution of each test compound is prepared by dissolving the compound in RRMI 1640 medium containing 10% bovine serum. A cell suspension of L5178Y cells, 1.1× 10⁴ cells/ml, each suspension having a volume of 1.8 ml, is added to each test tube. A solution ( 0.2 ml ) of the test compound hereinabove is added thereto and the medium is tightly sealed and incubated at 37 °C for 48 hours. After incubation, the numberof cells is measured using a Coulter counter and the growth ratio of the cells is determined.

Adenosine deaminase = biological target: T1, Adenosine deaminase (Bos taurus, UniProt P56658); assay: Resistance to adenosine deaminase (remaining sample measured by HPLC); assay type: in vitro ADME, Calf; settings: for Remaining ratio (%) 0 min. / remaining at 0.5 h, 500 µM: 0.5 mM test sample, adenosine deaminase, 0.05 M Tris-HCl buffer (pH 7.2), 25 °C; for remaining at 0.5 h, 500 µM: bovine, 30min., read-out: Remaining ratio (%) 30min.
T1 construct: Adenosine deaminase ( Calf inlestine, 400 U/ml glycerin, Boehringer 102091 ); purchased Boehringer 102091; host or cells: calf intestine (tissue-derived enzyme)
T1 sequence (P56658 1-363): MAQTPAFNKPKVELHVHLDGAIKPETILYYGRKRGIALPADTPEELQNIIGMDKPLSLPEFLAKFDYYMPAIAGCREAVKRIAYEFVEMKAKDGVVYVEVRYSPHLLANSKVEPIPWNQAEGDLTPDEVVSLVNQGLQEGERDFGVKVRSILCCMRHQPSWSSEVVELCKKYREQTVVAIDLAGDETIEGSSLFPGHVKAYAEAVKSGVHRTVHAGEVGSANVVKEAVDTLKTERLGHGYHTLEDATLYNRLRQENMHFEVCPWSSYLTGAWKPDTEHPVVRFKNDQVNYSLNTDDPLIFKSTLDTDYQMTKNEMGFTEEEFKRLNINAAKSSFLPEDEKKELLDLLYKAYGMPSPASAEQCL
Description: (2) Resistance to adenosine deaminase:
A solution 0.5 mM of each test sample is prepared by dissolving the test sample in 0.05 M Tris-HCl buffer (pH 7.2). Adenosine deaminase ( Calf inlestine, 400 U/ml glycerin, Boehringer 102091 ) is diluled ten times with 0.05 M Tris-HCl buffer (pH 7.2) to prepare an adenosine deaminase solulion.
0.5 ml of each sample solulion is mixed with 10 µl of adenosine deaminase solution . The mixtures are allowed to stand in a water bath at 25 °C, and 4 µl samples thereof are pipetted off after 0 and 30 minutes. The remaining sample is measured by HPLC under the following conditions. HPLC: Column : Supersher RP-18-4 Eluent : 15% methanol Flow rate : 1.0 ml/min. Temperature : 50°C

[1] = Single administration toxicity in mice; assay type: in vivo; settings: 10 mg/kg, intra peritoneally in mice
Description: 2 - Fluoroneplanocin A can be applied for an anti-neoplastic agent. Amount of dosage can be determined by considering curative effect, route of administration, ages or body weight of patient, and in general 10 - 500 mg/man/day will be applied. Administration can be done by perorally or parenterally, for example intravenous injection or drop infusion or intramuscular administration.

Row | SMILES | IC50 (L5178Y cells) | growth inhibitory activity against L5178Y cells as compared with that of known neplanocin A (L5178Y cells; relative to neplanocin A) | Remaining ratio (%) 0 min. (Adenosine deaminase) | decomposition by adenosine deaminase (Adenosine deaminase; after 30 minutes of incubation) | remaining at 0.5 h, 500 µM (Adenosine deaminase) | death [1]
1 | Nc1nc(F)nc2c1ncn2[C@@H]1C=C(CO)[C@@H](O)[C@H]1O [2-Fluoroneplanocin A, 2-fluoroneplanocin A] | 0.06 µg/mL (≈ 0.213 µM) | three times higher levels | 100% | not decomposed | 100% | No death is observed
2 | Nc1ncnc2c1ncn2[C@@H]1C=C(CO)[C@@H](O)[C@H]1O [neplanocin A, Neplanocin A] | 0.2 µg/mL (≈ 0.76 µM) |  | 100% |  | 0% | 
